Source: paper PMC9889419 (Pharmacological Reports, 2022)
“Also recorded” adds a separate entry of the source. Where a name gives a salt, the structure may show the parent alone. Read-outs that look alike come from different tables or passages of the source.

Legend:
rats = assay: Maximal electroshock seizure (MES) test; format: in vivo
mice [1] = assay: Subcutaneous pentylenetetrazole seizure test (ScPTZ, SCMET); format: in vivo; conditions: ip, […]
Protocol: The assays were carried out within the Epilepsy Therapy Screening Program (ETSP, previously known as the Anticonvulsant Screening Program, ASP), Epilepsy Branch, National Institute of Neurological and Communicative Disorders and Stroke, National Institutes of Health in Rockville, MD, USA [23].

α2 (non-selective) = assay: Radioligand binding; parameters: species or system rat
Protocol: (§1) Radioligand binding. Radioligand binding assays were performed at Eurofins CEREP (France). The results are expressed as a percent of control specific binding (measured specific binding*100/control specific binding) and as a percent inhibition of control specific binding (100-(measured specific binding*100)/control specific binding) obtained in the presence of the test compounds. The IC50 values (concentration causing a half-maximal inhibition of control specific binding) and Hill coefficients (nH) were determined by non-linear regression analysis of the competition curves generated with mean replicate values using Hill equation curve fitting (Y = D + [A-D]/[1 + (C/C50)^nH], where Y = specific binding, A = left asymptote of the curve, D = right asymptote of the curve, C = compound concentration, C50 = IC50, and nH = slope factor). This analysis was performed using software developed at Cerep (Hill software) and validated by comparison with data generated by the commercial software SigmaPlot® 4.0 for Windows® (© 1997 by SPSS Inc.). The inhibition constants (Ki) were calculated using the Cheng Prusoff equation (Ki = IC50/[1 + L/KD], where L = concentration of radioligand in the assay, and KD = affinity of the radioligand for the receptor). A scatchard plot is used to determine the Kd.

[2] = system: Ca2+ channel (L, verapamil site) (phenylalkylamine); assay: Radioligand binding; parameters: species or system rat
Protocol: as §1

mice [3] = assay: iv pentylenetetrazole (PTZ) seizure threshold test; conditions: compound ip
Protocol: They were also evaluated in the iv pentylenetetrazole (PTZ) test.
Data are expressed as the mean PTZ dose ± SEM for n = 10 that induced clonus or twitch in mice exposed to a particular dose of the test compound

Na+ channel (site 2) = assay: Radioligand binding; parameters: species or system rat
D4.4 = biological target: T1, D4.4 (Homo sapiens, UniProt P21917); assay: Radioligand binding
T1 sequence (P21917 1-419): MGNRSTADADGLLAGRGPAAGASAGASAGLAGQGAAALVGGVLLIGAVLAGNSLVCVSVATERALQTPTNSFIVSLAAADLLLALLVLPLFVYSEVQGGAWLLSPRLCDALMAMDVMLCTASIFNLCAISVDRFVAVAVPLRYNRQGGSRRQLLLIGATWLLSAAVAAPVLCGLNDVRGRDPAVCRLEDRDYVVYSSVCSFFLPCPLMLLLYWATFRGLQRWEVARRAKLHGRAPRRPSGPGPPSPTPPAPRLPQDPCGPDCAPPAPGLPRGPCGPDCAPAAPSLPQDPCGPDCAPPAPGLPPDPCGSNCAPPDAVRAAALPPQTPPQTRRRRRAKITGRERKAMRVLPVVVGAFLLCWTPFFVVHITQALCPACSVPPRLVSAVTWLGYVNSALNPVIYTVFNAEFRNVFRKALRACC
Protocol: as §1

κ (KOP) = κ (KOP) (Rattus norvegicus, UniProt P34975); assay: Radioligand binding
Protocol: as §1

M4 = biological target: T2, M4 (Homo sapiens, UniProt P08173); assay: Radioligand binding
T2 sequence (P08173 1-479): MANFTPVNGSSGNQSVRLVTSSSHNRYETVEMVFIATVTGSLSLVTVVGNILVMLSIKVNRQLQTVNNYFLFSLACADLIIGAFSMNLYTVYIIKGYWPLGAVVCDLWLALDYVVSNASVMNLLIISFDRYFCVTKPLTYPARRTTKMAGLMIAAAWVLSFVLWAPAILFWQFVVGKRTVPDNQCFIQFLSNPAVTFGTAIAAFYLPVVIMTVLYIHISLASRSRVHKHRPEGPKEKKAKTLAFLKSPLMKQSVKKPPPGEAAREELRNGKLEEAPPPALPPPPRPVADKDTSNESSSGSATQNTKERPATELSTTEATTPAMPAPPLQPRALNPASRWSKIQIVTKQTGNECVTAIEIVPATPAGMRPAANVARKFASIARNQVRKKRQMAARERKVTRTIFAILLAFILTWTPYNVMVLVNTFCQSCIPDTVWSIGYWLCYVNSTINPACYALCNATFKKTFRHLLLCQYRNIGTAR
Protocol: as §1

M1 = biological target: T3, M1 (Homo sapiens, UniProt P11229); assay: Radioligand binding
T3 sequence (P11229 1-460): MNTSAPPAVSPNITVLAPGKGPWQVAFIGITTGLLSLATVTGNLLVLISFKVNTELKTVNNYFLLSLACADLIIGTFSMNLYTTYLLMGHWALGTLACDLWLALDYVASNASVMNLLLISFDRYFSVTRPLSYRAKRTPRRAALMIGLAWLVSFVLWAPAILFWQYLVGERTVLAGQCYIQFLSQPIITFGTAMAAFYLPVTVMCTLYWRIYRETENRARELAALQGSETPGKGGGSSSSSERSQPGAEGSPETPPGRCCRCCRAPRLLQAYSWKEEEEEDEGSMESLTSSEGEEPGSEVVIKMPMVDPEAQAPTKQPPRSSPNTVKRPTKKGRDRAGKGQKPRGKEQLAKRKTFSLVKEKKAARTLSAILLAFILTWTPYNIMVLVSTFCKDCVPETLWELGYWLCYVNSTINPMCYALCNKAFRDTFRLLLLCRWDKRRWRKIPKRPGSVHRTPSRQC
Protocol: as §1

mice [4] = assay: Formalin test (ETSP, area under the curve); format: in vivo; conditions: ip
mice [5] = assay: Corneal kindling; format: in vivo; conditions: ip
mice [6] = system: mice
[7] = 0.01 μM, read-out: % of control specific binding
[8] = 0.1 μM, read-out: % of control specific binding
[9] = 1 μM, read-out: % of control specific binding
[10] = 10 μM, read-out: % of control specific binding
[11] = 100 μM, read-out: % of control specific binding
[12] = 3 μM, read-out: % of control specific binding

Chain of κ (KOP) (P34975 whole entry): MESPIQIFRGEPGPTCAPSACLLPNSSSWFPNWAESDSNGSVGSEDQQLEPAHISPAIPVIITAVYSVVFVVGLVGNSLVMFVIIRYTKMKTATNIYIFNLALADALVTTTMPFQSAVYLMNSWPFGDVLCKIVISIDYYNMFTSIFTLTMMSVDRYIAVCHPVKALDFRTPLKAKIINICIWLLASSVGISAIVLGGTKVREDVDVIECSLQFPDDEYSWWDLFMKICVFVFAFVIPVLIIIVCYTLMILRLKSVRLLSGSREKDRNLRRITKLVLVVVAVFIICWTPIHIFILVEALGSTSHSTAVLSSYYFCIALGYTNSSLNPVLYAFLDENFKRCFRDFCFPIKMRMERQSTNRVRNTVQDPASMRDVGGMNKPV

## CCC(CO)NCCOc1c(C)cccc1Cl (stereo not shown) [Compound 4, R,S-2-((2-(2-chloro-6-methylphenoxy)ethyl)amino)butan-1-ol]
rats; ip
  MES TPE: 0.25 h
rats; ip, […]
  MES ED50: 7.3 (5.39–9.89) mg/kg
rats; po
  MES ED50: > 60 mg/kg
  MES PI: > 3.55
rats; po, […]
  MES ED50: 67.69 (43.01–93.82) mg/kg
Mice [1]; mice
  SCMET ED50: > 64 mg/kg
α2 (non-selective); 100 μM
  % of control specific binding: 27.7%
[2]; 100 μM
  % of control specific binding: 38.5%
Mice [3]
  influence on seizure threshold: lowered the seizure threshold; also recorded: showed activity in lowering the seizure threshold
Na+ channel (site 2); 100 μM
  % of control specific binding: 11.6%
D4.4; 100 μM
  % of control specific binding: 26.6%
κ (KOP); 100 μM
  % of control specific binding: 29.0%
M4; 100 μM
  % of control specific binding: 30.5%
M1; 100 μM
  % of control specific binding: 46.7%
Mice [4]; 21 mg/kg
  Area under the curve (I phase): 124.8 ± 32.7
  Area under the curve (II phase): 569.2 ± 405.0
  Area under the curve, % of control (I phase): 64.0%
  Area under the curve, % of control (II phase): 72.7%
Mice [4]; 21 mg/kg, listed as 348014
  Area under the curve (I phase): 124.8
  Area under the curve (II phase): 569.2
Mice [5]
  Corneal kindling TPE: 0.25 h
Mice [5]; […]
  Corneal kindling ED50: 19.51 (11.86–28.41) mg/kg
Mice [6]; female mice, ip
  MES TPE: 0.25 h
Mice [6]; female mice, ip, […]
  MES ED50: 11.64 (10.55–12.47) mg/kg
Mice [6]; mice, ip, […]
  MES ED50: 21.44 (18.63–25.32) mg/kg
Mice [6]; mice, po
  MES PI: 6.12
  MES TPE: 0.5 h
Mice [6]; mice, po, 0.5 h
  MES ED50: 58.13 (45.58–68.93) mg/kg

## CCC(CO)NCCOc1c(C)cccc1Cl (stereo not shown) [KM-408, R,S-2-((2-(2-chloro-6-methylphenoxy)ethyl)amino)butan-1-ol hydrochloride]
rats; Rattus norvegicus, ip, 0.25 h
  ED50: 5.69 mg/kg
rats; ip
  MES PI: 9.55
  MES TPE: 0.25 h
Mice [1]; Mus musculus, read-out: SCMET ED50
  ED50: > 100 mg/kg
α2 (non-selective)
  IC50: 24 µM
  Ki: 10 µM
α2 (non-selective); 0.01 μM
  % of control specific binding: 101.3%
α2 (non-selective); 0.1 μM
  % of control specific binding: 111.6%
α2 (non-selective); 1 μM
  % of control specific binding: 101.2%
α2 (non-selective); 10 μM
  % of control specific binding: 73.4%
α2 (non-selective); 100 μM
  % of control specific binding: 23.5%
[2]
  IC50: 43 µM
  Ki: 22 µM
[2]; 0.1 μM
  % of control specific binding: 101.9%
[2]; 1 μM
  % of control specific binding: 104.4%
[2]; 3 μM
  % of control specific binding: 93.6%
[2]; 10 μM
  % of control specific binding: 80.9%
[2]; 100 μM
  % of control specific binding: 34.8%
Mice [3]
  influence on seizure threshold: the effect was not observed
Mice [3]; listed as KM408
  influence on seizure threshold: effect was not shown
Na+ channel (site 2)
  IC50: 15 µM
  Ki: 14 µM
Na+ channel (site 2); 0.3 μM
  % of control specific binding: 101.1%
Na+ channel (site 2); 3 μM
  % of control specific binding: 92.0%
Na+ channel (site 2); 30 μM
  % of control specific binding: 40.3%
D4.4
  IC50: 66 µM
  Ki: 25 µM
D4.4; [7]
  remaining activity at 0.01 µM: 100%
D4.4; [8]
  remaining activity at 0.1 µM: 101%
D4.4; [9]
  remaining activity at 1 µM: 97.6%
D4.4; [10]
  remaining activity at 10 µM: 87.9%
D4.4; [11]
  remaining activity at 100 µM: 39.4%
κ (KOP)
  IC50: 25 µM
  Ki: 17 µM
κ (KOP); [7]
  remaining activity at 0.01 µM: 104%
κ (KOP); [8]
  remaining activity at 0.1 µM: 98.3%
κ (KOP); [9]
  remaining activity at 1 µM: 97.3%
κ (KOP); [10]
  remaining activity at 10 µM: 72.1%
κ (KOP); [11]
  remaining activity at 100 µM: 21.1%
M4
  IC50: 24 µM
  Ki: 15 µM
M4; [8]
  remaining activity at 0.1 µM: 98%
M4; [9]
  remaining activity at 1 µM: 92%
M4; [12]
  remaining activity at 3 µM: 82.7%
M4; [10]
  remaining activity at 10 µM: 67%
M4; [11]
  remaining activity at 100 µM: 23.8%
M1
  IC50: 64 µM
  Ki: 55 µM
M1; [8]
  remaining activity at 0.1 µM: 114%
M1; [9]
  remaining activity at 1 µM: 108%
M1; [12]
  remaining activity at 3 µM: 123%
M1; [10]
  remaining activity at 10 µM: 99.7%
M1; [11]
  remaining activity at 100 µM: 43.1%
Mice [4]; 13.25 mg/kg
  Area under the curve (I phase): 113.7 ± 65.6
  Area under the curve (II phase): 489.7 ± 211.3
Mice [5]; at 30 mg/kg, […]
  Corneal kindling avg. seizure score by Racine (0–5): 2.5
Mice [6]; mice, ip
  MES TPE: 0.25 h
